Common to all, as to type: cell-based
The test system of assay [1] is MDA-MB-231 (breast cancer). In words: Antiproliferative activity (CCK-8 cell viability), MDA-MB-231. The settings on record: Homo sapiens, 72 h, read-out: Antiproliferative activity in cancerous cells, MDA-MB-231 (inhibition of cell growth); for inhibition at 3.3 µM: Compound concentration: 3.3 μM; for inhibition at 10 µM: Compound concentration: 10 μM. The method, boiled down:
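In this CCK-8 viability assay, MDA-MB-231 cells maintained in Dulbecco's modified Eagle's medium containing 10% fetal bovine serum were placed in 96-well plates (2,000-5,000 cells/well) and treated with compound for 72 h at 37° C. A 4 h incubation with 10 μL CCK-8 followed, plates were read at 450 nm, and viability was expressed against DMSO vehicle wells across replicates.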

The next assay relates to HepG2 (liver cancer). Description: Antiproliferative activity (CCK-8 cell viability), HepG2. As to conditions: Homo sapiens, 72 h, read-out: Antiproliferative activity in cancerous cells, HepG2 (inhibition of cell growth); for inhibition at 3.3 µM: Compound concentration: 3.3 μM; for inhibition at 10 µM: Compound concentration: 10 μM. The method, boiled down:
(§1)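 Cells were seeded at 2,000-5,000/well (HeLa in MEM, HepG2 and SW480 in DMEM, A549 in F-12K, all with 10% FBS) and treated with compound at 3.3, 10 or 30 μM for 72 h at 37° C. CCK-8 was added for 4 h, absorbance was read at 450 nm, and viability was expressed relative to DMSO-treated wells.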

The test system of another assay is SW480 (colon cancer). Description: Antiproliferative activity (CCK-8 cell viability), SW480. As to conditions: Homo sapiens, 72 h; for inhibition at 3.3 µM: Compound concentration: 3.3 μM; for inhibition at 10 µM: Compound concentration: 10 μM; for inhibition at 30 µM: Compound concentration: 30 μM. The method, boiled down: as §1
Assay [2] has as its system B16F10 (malignant melanoma). In words: Antiproliferative activity (CCK-8 cell viability), B16F10. As to conditions: Mus musculus, 72 h, read-out: Antiproliferative activity in cancerous cells, B16F10 (inhibition of cell growth); for inhibition at 3.3 µM: B16-F10, Compound concentration: 3.3 μM; for inhibition at 10 µM: B16-F10, Compound concentration: 10 μM. The method, boiled down:
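Attached B16F10 cells in 96-well plates were incubated with compound at 37° C for 72 h, followed by 10 μL CCK-8 reagent per well and a further 4 h incubation. A multi-well plate reader measured absorbance at 450 nm. Percent viability across replicates was calculated against DMSO vehicle-treated cells.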

Assay [3] relates to A431 (epidermoid carcinoma). Description: Antiproliferative activity (CCK-8 cell viability), A431. The settings on record: Homo sapiens, 72 h, read-out: Antiproliferative activity in cancerous cells, A431 (inhibition of cell growth); for inhibition at 3.3 µM: A-431, Compound concentration: 3.3 μM; for inhibition at 10 µM: A-431, Compound concentration: 10 μM. The method, boiled down:
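Cell viability of compound-treated A431 cells was measured with a Cell Counting Kit-8. Each well received 10 μL of CCK-8 after 72 h of compound exposure, followed by 4 h incubation at 37° C. and a 450 nm plate-reader measurement. Percent viability was calculated relative to DMSO controls across replicates.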

The test system of assay [4] is A549 (lung adenocarcinoma). Description: Antiproliferative activity (CCK-8 cell viability), A549. As to conditions: Homo sapiens, 72 h, read-out: Antiproliferative activity in cancerous cells, A549 (inhibition of cell growth); for inhibition at 3.3 µM: Compound concentration: 3.3 μM; for inhibition at 10 µM: Compound concentration: 10 μM. In a few lines: as §1
The next assay has as its system HeLa (cervical cancer). Description: Antiproliferative activity (CCK-8 cell viability), HeLa. As to conditions: Homo sapiens, 72 h, read-out: Antiproliferative activity in cancerous cells, HELA (inhibition of cell growth); for inhibition at 3.3 µM: Compound concentration: 3.3 μM; for inhibition at 10 µM: Compound concentration: 10 μM. In a few lines: as §1
Setting [5] is: read-out: Antiproliferative activity in cancerous cells, SW480 (inhibition of cell growth).

The structures appear in SMILES notation. Read-outs that look alike come from different tables or passages of the source.

In the case of `CC1=C(CC(=O)O)c2cc(F)ccc2/C1=C\c1ccc(Oc2ccc(Cl)cc2Cl)cc1` [C66, (Z)-2-(1-(4-(2,4-Dichlorophenoxy)benzylidene)-5-fluoro-2-methyl-1H-inden-3-yl)acetic acid], the inhibition at 3.3 µM is below 30% in assay [1]; at least 50% with HepG2 (liver cancer); below 30% with SW480 (colon cancer) (setting [5]); below 30% in assay [2]; at least 50% in assay [3]; 30 to 50% in assay [4]. In the assay with HeLa (cervical cancer), the inhibition at 3.3 µM was at least 50%. In addition, the inhibition at 10 µM in assay [1] is at least 50%; in the assay with HepG2 (liver cancer) it was at least 50%; with SW480 (colon cancer) (setting [5]) it was below 30%; in assay [2], at least 50%; in assay [3], at least 50%; in assay [4], at least 50%. For the same compound, in the assay with HeLa (cervical cancer), the inhibition at 10 µM was at least 50%.

Take `CC1=C(CC(=O)O)c2cc(Cl)ccc2/C1=C\c1ccc(Oc2ccc(Cl)cc2)cc1` [C62, (Z)-2-(5-Chloro-1-(4-(4-chlorophenoxy)benzylidene)-2-methyl-1H-inden-3-yl)acetic acid]: the inhibition at 3.3 µM in assay [1] is below 30%; in the assay on HepG2 (liver cancer), at least 50%; in the assay on SW480 (colon cancer) (setting [5]) it was below 30%; in assay [2], below 30%; in assay [3], 30 to 50%; in assay [4] it was 30 to 50%. For the same compound, the inhibition at 3.3 µM with HeLa (cervical cancer) lay within 30 to 50%. For the same compound, the inhibition at 10 µM in assay [1] is below 30%; with HepG2 (liver cancer) it was at least 50%; with SW480 (colon cancer) (setting [5]), 30 to 50%; in assay [2], at least 50%; in assay [3], at least 50%; in assay [4], at least 50%. Moreover, the inhibition at 10 µM with HeLa (cervical cancer) was at least 50%.

With `CC1=C(CC(=O)O)c2cc(Cl)c(Cl)cc2/C1=C\c1ccc(Oc2ccc(F)cc2)cc1` [C83, (Z)-2-(5,6-Dichloro-1-(4-(4-fluorophenoxy)benzylidene)-2-methyl-1H-inden-3-yl)acetic acid], the inhibition at 3.3 µM in assay [1] was at least 50%; with HepG2 (liver cancer), below 30%; with SW480 (colon cancer) (setting [5]), at least 50%; in assay [2] it was at least 50%; in assay [3] it was at least 50%; in assay [4], at least 50%. In addition, the inhibition at 3.3 µM in the assay on HeLa (cervical cancer) is at least 50%. Besides, the inhibition at 10 µM (in assay [1]; in the assay on HepG2 (liver cancer); in the assay on SW480 (colon cancer) (setting [5]); in assay [2]; in assay [3]; in assay [4]) was at least 50% each time. Moreover, the inhibition at 10 µM with HeLa (cervical cancer) was at least 50%.

In the case of `COc1ccc2c(c1)C(CC(=O)O)=C(C)/C2=C/c1ccc(Oc2ccc(F)c(F)c2)cc1` [C75, (Z)-2-(1-(4-(3,4-Difluorophenoxy)benzylidene)-5-methoxy-2-methyl-1H-inden-3-yl)acetic acid], the inhibition at 3.3 µM in assay [1] was at least 50%; in the assay with HepG2 (liver cancer) it was below 30%; in the assay on SW480 (colon cancer) (setting [5]) it was below 30%; in assay [2], at least 50%; in assay [3] it was at least 50%; in assay [4], 30 to 50%. The inhibition at 3.3 µM in the assay on HeLa (cervical cancer) is at least 50%. In addition, the inhibition at 10 µM in assay [1] was at least 50%; in the assay with HepG2 (liver cancer), at least 50%; in the assay on SW480 (colon cancer) (setting [5]), 30 to 50%; in assay [2] it was at least 50%; in assay [3], at least 50%; in assay [4], at least 50%. The inhibition at 10 µM with HeLa (cervical cancer) is at least 50%.

As to `CC1=C(CC(=O)O)c2cc(F)ccc2/C1=C/c1ccc(Oc2ccc(Cl)c(Cl)c2)cc1` [E21, (E)-2-(1-(4-(3,4-Dichlorophenoxy)benzylidene)-5-fluoro-2-methyl-1H-inden-3-yl)acetic acid], the inhibition at 3.3 µM in assay [1] is at least 50%; in the assay on HepG2 (liver cancer), below 30%; in the assay on SW480 (colon cancer) (setting [5]), 30 to 50%; in assay [2] it was below 30%; in assay [3] it was at least 50%; in assay [4], 30 to 50%. Moreover, in the assay on HeLa (cervical cancer), the inhibition at 3.3 µM is at least 50%. For the same compound, the inhibition at 10 µM (in assay [1]; in the assay with HepG2 (liver cancer); in the assay with SW480 (colon cancer) (setting [5]); in assay [2]; in assay [3]; in assay [4]) was at least 50% in each case. In addition, the inhibition at 10 µM with HeLa (cervical cancer) was at least 50%. The inhibition at 30 µM in assay [1] (Compound concentration: 30 μM) is at least 50%; in the assay with HepG2 (liver cancer) (Compound concentration: 30 μM), at least 50%; in the assay with SW480 (colon cancer) (setting [5]), at least 50%; in assay [2] (B16-F10, Compound concentration: 30 μM), at least 50%; in assay [3] (A-431, Compound concentration: 30 μM), at least 50%; in assay [4] (Compound concentration: 30 μM), at least 50%. Also, in the assay on HeLa (cervical cancer) (Compound concentration: 30 μM), the inhibition at 30 µM is at least 50%.

Regarding `COc1cc(Oc2ccc(Cl)cc2)ccc1/C=C1/C(C)=C(CC(=O)O)c2cc(F)ccc21` [C58, (Z)-2-(1-(4-(4-Chlorophenoxy)-2-methoxybenzylidene)-5-fluoro-2-methyl-1H-inden-3-yl)acetic acid], the inhibition at 3.3 µM in assay [1] was below 30%; in the assay with HepG2 (liver cancer), at least 50%; in the assay on SW480 (colon cancer) (setting [5]) it was below 30%; in assay [2], at least 50%; in assay [3] it was at least 50%; in assay [4], at least 50%. The inhibition at 3.3 µM in the assay on HeLa (cervical cancer) is at least 50%. Besides, the inhibition at 10 µM in assay [1] was below 30%; with HepG2 (liver cancer) it was at least 50%; with SW480 (colon cancer) (setting [5]) it was below 30%; in assay [2] it was at least 50%; in assay [3], at least 50%; in assay [4] it was at least 50%. For the same compound, the inhibition at 10 µM with HeLa (cervical cancer) is at least 50%. Also, in the assay with SW480 (colon cancer) (read-out: Antiproliferative activity in cancerous cells, SW480), the inhibition at 30 µM was 30 to 50%.

`CC1=C(CC(=O)O)c2cc(F)ccc2/C1=C\c1cccc(CS(=O)(=O)c2ccc(F)cc2)c1` [B51, (Z)-2-(5-Fluoro-1-(3-(((4-fluorophenyl)sulfonyl)methyl)benzylidene)-2-methyl-1H-inden-3-yl)acetic acid]: the inhibition at 3.3 µM in assay [1] was 30 to 50%; in the assay on HepG2 (liver cancer) it was below 30%; in the assay on SW480 (colon cancer) (setting [5]), below 30%; in assay [2], below 30%; in assay [3], 30 to 50%; in assay [4] it was below 30%. Moreover, in the assay on HeLa (cervical cancer), the inhibition at 3.3 µM was in the range of 30 to 50%. Moreover, the inhibition at 10 µM in assay [1] was at least 50%; in the assay with HepG2 (liver cancer), below 30%; with SW480 (colon cancer) (setting [5]), 30 to 50%; in assay [2] it was at least 50%; in assay [3], 30 to 50%; in assay [4], 30 to 50%. Moreover, in the assay with HeLa (cervical cancer), the inhibition at 10 µM was at least 50%.

Source of the values: patent publication US20260184663A1, “INDENE COMPOUNDS, PHARMACEUTICAL COMPOSITIONS THEREOF, AND THEIR THERAPEUTIC APPLICATIONS” (NucMito Pharmaceuticals co. Ltd., priority 2022, published 2026).
